This note sets out measurements from ChEMBL document CHEMBL3046358, “Multiple Pro-197 substitutions in the acetolactate synthase of rigid ryegrass (Lolium rigidum) and their impact on chlorsulfuron activity and plant growth” (Crop Prot, 2012).

Type in all cases: functional
Assay [1] concerns Lolium rigidum. The assay can be described thus: Herbicidal activity against Lolium rigidum accession A14 assessed as emergence rate applied at 1 times pre-emergence recommended rate relative to untreated control.
For assay [2], the system named is Lolium rigidum. Briefly: Herbicidal activity against Lolium rigidum accession A06 assessed as fresh weight reduction applied at 1 times pre-emergence recommended rate applied in pots where terbufos had been incorporated into the soil relative to untreated control. More on the design: scale not given: the % may be the effect or the level left.
The subject of assay [3] is Lolium rigidum. Briefly: Herbicidal activity against Lolium rigidum accession A09 assessed as fresh weight reduction applied at 1 times pre-emergence recommended rate applied in pots where terbufos had been incorporated into the soil relative to untreated control. The arrangement: scale not given: the % may be the effect or the level left.
In assay [4] the test system is Lolium rigidum. The assay can be described thus: Herbicidal activity against Lolium rigidum accession A05 assessed as emergence rate applied at 1 times pre-emergence recommended rate relative to untreated control.
For assay [5], the system named is Lolium rigidum. Briefly: Herbicidal activity against Lolium rigidum accession A11 assessed as emergence rate applied at 4 times pre-emergence recommended rate relative to untreated control.
Assay [6] relates to Lolium rigidum. The assay can be described thus: Herbicidal activity against Lolium rigidum accession A02 assessed as fresh weight reduction applied at 1 times pre-emergence recommended rate applied in pots where terbufos had been incorporated into the soil relative to untreated control. The arrangement: scale not given: the % may be the effect or the level left.
Assay [7] concerns Lolium rigidum. Briefly: Herbicidal activity against Lolium rigidum accession A14 assessed as fresh weight reduction applied at 1 times pre-emergence recommended rate applied in pots where terbufos had been incorporated into the soil relative to untreated control. More on the design: scale not given: the % may be the effect or the level left.
Assay [8] deals with Lolium rigidum. Briefly: Herbicidal activity against Lolium rigidum accession A07 assessed as emergence rate applied at 4 times pre-emergence recommended rate relative to untreated control.
Assay [9] relates to Lolium rigidum. Briefly: Herbicidal activity against Lolium rigidum accession A06 assessed as fresh weight reduction applied at 4 times pre-emergence recommended rate relative to untreated control. More on the design: scale not given: the % may be the effect or the level left.
In assay [10] the test system is Lolium rigidum. Briefly: Herbicidal activity against Lolium rigidum accession A02 assessed as fresh weight reduction applied at 1 times pre-emergence recommended rate relative to untreated control. More on the design: scale not given: the % may be the effect or the level left.
Assay [11] has as its system Lolium rigidum. Briefly: Herbicidal activity against Lolium rigidum accession A03 assessed as fresh weight reduction applied at 4 times pre-emergence recommended rate relative to untreated control. More on the design: scale not given: the % may be the effect or the level left.
The test system of assay [12] is Lolium rigidum. The assay can be described thus: Herbicidal activity against Lolium rigidum accession A07 assessed as emergence rate applied at 1 times pre-emergence recommended rate applied in pots where terbufos had been incorporated into the soil relative to untreated control.
Assay [13] concerns Lolium rigidum. Briefly: Herbicidal activity against Lolium rigidum accession A09 assessed as emergence rate applied at 1 times pre-emergence recommended rate applied in pots where terbufos had been incorporated into the soil relative to untreated control.
The test system of assay [14] is Lolium rigidum. Briefly: Herbicidal activity against Lolium rigidum accession A01 assessed as emergence rate applied at 1 times pre-emergence recommended rate relative to untreated control.
Assay [15] relates to Lolium rigidum. Briefly: Herbicidal activity against Lolium rigidum accession A07 assessed as fresh weight reduction applied at 1 times pre-emergence recommended rate applied in pots where terbufos had been incorporated into the soil relative to untreated control. The arrangement: scale not given: the % may be the effect or the level left.

Consider `COc1nc(C)nc(NC(=O)NS(=O)(=O)c2ccccc2Cl)n1` [CHLORSULFURON], for which the Activity with Lolium rigidum [1] was determined as 1%; in the assay with Lolium rigidum [2] it was 0%; with Lolium rigidum [3] it was 94%; in the assay with Lolium rigidum [4], 97%; with Lolium rigidum [5], 1%; with Lolium rigidum [6], 100%. For the same compound, the Activity in the assay with Lolium rigidum [7] is given as 98%; in the assay with Lolium rigidum [8], 34%; in the assay on Lolium rigidum [9] it was 11%; in the assay on Lolium rigidum [10], 96%; with Lolium rigidum [11], 91%; in the assay on Lolium rigidum [12] it was 85%. In addition, the Activity with Lolium rigidum [13] was found to be 3%; in the assay on Lolium rigidum [14], 2%; with Lolium rigidum [15] it was 1%.
